Earlier results, collected in patent publication US20110053874A1, “USE OF FLAVONOIDE COMPOUNDS FOR THE PROPHYLAXIS AND THERAPY OF ISCHAEMIC OR INFLAMMATORY HEART AND CARDIOVASCULAR DISEASES” (BOEHRINGER INGELHEIM INTERNATIONAL GMBH, priority 2008, published 2011).

Tests used:
[1] = in vivo
[2] = human, oral

SMILES	absorption [1]	form present in the plasma after being taken orally and absorbed through the intestine [2]
O=c1c(O)c(-c2ccc(O)c(O)c2)oc2cc(O)cc(O)c12 [Quercetin]	only absorbed to a small extent	
O=c1c(O[C@@H]2O[C@H](CO)[C@@H](O)[C@H](O)[C@H]2O)c(-c2ccc(O)cc2)oc2cc(O)cc(O)c12 [kaempferol glucoside, kaempferol-3-O-β-D-glucoside]		almost completely in the form of their respective glucuronides
O=c1c(O[C@@H]2O[C@H](CO)[C@@H](O)[C@H](O)[C@H]2O)c(-c2ccc(O)c(O)c2)oc2cc(O)cc(O)c12 [quercetin glucoside, quercetin-3-O-β-D-glucoside]		almost completely in the form of their respective glucuronides
